Source: patent US20040224917A1, “Compositions and methods for combination antiviral therapy” (GILEAD SCIENCES, INC., priority 2003, published 2004)
Structures can show the parent of a compound that is named as a salt.

What was measured:
HIV-1 = settings: in combination with recombinant soluble CD4 castanospermine and recombinant interferon-α; cited from earlier work
[1] = in tablets, six months at 40° C./75% RH, packaged and stored with desiccant
HIV replication = settings: in combination with PMPA, d4T, ddC, nelfinavir, ritonavir, saquinavir; cited from earlier work
[2] = each dose regimen greater or equal to 200 mg, two weeks, monotherapy

Nc1nc(=O)n([C@@H]2CS[C@H](CO)O2)cc1F (single isomer, unassigned) [Emtricitabine]
viral suppression (HIV; [2]): ≥ 98% | viral suppression (log 10) (HIV; [2]): ≥ 1.75 log 10 | reduction of viral load, average (HIV; once-a-day dose of 200 mg): 99% | reduction of viral load, average (log 10) (HIV; once-a-day dose of 200 mg): 1.92 log 10

Cc1cn([C@H]2C[C@H](N=[N+]=[N-])[C@@H](CO)O2)c(=O)[nH]c1=O [AZT, 3′-azido, 3′-deoxythymidine]
synergy of antiviral activity in vitro (HIV-1): synergistic antiviral activity

CC(C)OC(=O)OCOP(=O)(CO[C@H](C)Cn1cnc2c(N)ncnc21)OCOC(=O)OC(C)C [Tenofovir disoproxil fumarate, 9-[(R)-2-[[bis[[(isopropoxycarbonyl)oxy]methoxy]phosphinyl]methoxy]propyl]adenine fumarate (1:1)]
loss in % label strength (significant defined as ≧5% degradation) [1]: No significant loss

CC(C)(C)C(=O)OCOP(=O)(COCCn1cnc2c(N)ncnc21)OCOC(=O)C(C)(C)C [Adefovir dipivoxil]
synergy of inhibition of HIV replication (HIV replication): minor to moderate synergistic inhibition
